Article PMC9555560, “Fast relaxing red and near-IR switchable azobenzenes with chalcogen and halogen substituents: periodic trends, tuneable thermal half-lives and chalcogen bonding” (Chemical Science, 2022)

What was measured:
Type in all cases: physicochemical
[1] = UV-vis spectra of the E isomers (n → π* absorption maximum); details: E isomer, DMSO
Description: The UV-vis spectra of the (E)-X4 derivatives and (E)-X2,m-Y2 are shown in Fig. 3 (analogous spectra for the Z isomers, and deconvoluted spectra are available in the ESI ^†). […] The n → π* transition maximum, λmax, typically followed the order meta-H > –NMe2 > –OMe and ortho-S > Cl > F. It is clear from these experiments that the four ortho X substituents in the X4 derivatives are essential for achieving the deeply red-shifted tails which allows for red/near-IR triggered photo-isomerisation.
(§1) All UV-vis spectra were determined in DMSO solution. Extinction coefficients were determined by recording a UV-vis spectra for the E isomer at 10, 20, 30, 40 µM in DMSO respectively. The absorbance at the maximum of the π - π* transition of the E‐isomers was plotted against concentration (Beer-Lambert plot) to determine the molar extinction coefficient ε. For each slow relaxing compound, the E isomer sample at 40 µM was irradiated with the appropriate wavelength of light to generate the photo-stationary state, and another spectrum was run. This spectrum was normalised to units of ε and overlaid with the dark (100% E isomer) spectrum.

[2] = E → Z photo-isomerisation with LEDs / photo-stationary state (PSS) determination; details: under irradiation
Protocol: (§2) The E → Z photo-isomerisation and half-life for the Z → E thermal isomerisation was evaluated for all derivatives (Fig. 7 and Table 1, see ESI ^† for original data). To our surprise, the half-lives for (Z)-X2,m-Y2 derivatives were in the order of hours to days for X = F and Cl: the effect of the meta group was not as drastic as anticipated. We typically observed a ∼4 fold decrease in half-life by substituting H with OMe, and a further 3-fold drop from OMe to NMe2 for X = F, Cl and SEt. The nature of the ortho-substituent appeared to be the main influence on τ1/2 (F > Cl ≫ SEt). However, these predictable trends observed for the meta-substitution allow for precise tuning of thermal half-lives. The photo-stationary states (PSSs) of these derivatives ranged from 48–77% Z isomer (Table 1).
Remarkably, it was possible to photo-switch the tetra-iodo derivative I4-ester using near-IR light (730 nm) (Fig. 8C). […] Photo-isomerisation was not detected for the ortho-telluro derivatives. This is consistent with findings by Haberhauer and co-workers, who propose that the strong chalcogen bonds in the E isomer of a PhTe-substituted azobenzene lead to dramatic energy differences between the E and Z isomers, which suppresses photoswitching.[43] The photo-stationary states of the halogen X4 derivatives range from 50–84% (Table 1) and could also be determined for the slower relaxing chalcogen derivatives (PSS 46–95%, see Fig. S308–S323 ^† for original data).
as §1, with “spectrum. […]” for “spectrum.”

[3] = Half-life of the Z → E thermal isomerisation (UV-vis absorbance followed over time after irradiation); details: for τ 1/2: 298 K
Protocol: as §2
All UV-vis spectra were determined in DMSO solution. […]
Lambert plot) to determine the molar extinction coefficient ε. For each slow relaxing compound, the E isomer sample at 40 µM was irradiated with the appropriate wavelength of light to generate the photo-stationary state, and another spectrum was run. This spectrum was normalised to units of ε and overlaid with the dark (100% E isomer) spectrum. […]
Photo-irradiation of liquid samples was carried out using Thorlabs high-power mounted LEDs (models […]
M530L4 (green, 530 nm); in-house custom built set-ups using optical components supplied by Thorlabs, as described in reference 2
Equation y = y0 + A1*exp(-(x-x0)/t1
Figure S327. Lifetime plot of (Z)-Br4-NHBoc based on following UV-Vis absorbance over time after irradiation with 625 nm light (rt, DMSO). Data consistent with NMR half-life data.
Figure S328. Reversible of switching of I4-NHBoc over time after irradiation with 6 60 nm light (rt, DMSO). Dots : raw data, Line: 1st order Exponential Fit […]

[4] = GSH stability study (decay of absorbance in phosphate buffer with 10 mM glutathione); details: for t1 of 1st order exponential decay fit (decomposition with GSH): 100 mM phosphate buffer containing 10 mM GSH degassed with N2, 298 K; for τ 1/2 (10 mM GSH): 100 mM phosphate buffer pH 7 containing 10 mM GSH, degassed with N2, 298 K, para substituent CH2NH2·TFA
Protocol: Finally, the stability of the X4 derivatives were assessed by exposing them to the highest expected intracellular concentration of glutathione (GSH, 10 mM).[28] This was achieved by treating the Boc-protected amino-methyl derivatives X4-NHBoc (X = F, Cl, Br, I, OMe, SMe and SeMe) with TFA to remove the protecting groups. The resulting ammonium-appended AB derivative was dissolved in N2-degassed 100 mM phosphate buffer at pH 7 containing 10 mM GSH, and the changes in absorbance were monitored over an extended period. […] Strong σ-donating substituents are also proposed to aid diazo lone pair protonation, and subsequent GSH attack.[25]
A 10 mM reduced glutathione (GSH) solution was prepared in degassed 100 mM sodium phosphate buffer (at least 15 minutes of N 2 bubbled through the buffer solution prior to addition to GSH). The absorption of the solution was measured periodically at 25 °C, then fitted to a 1 st Order exponential […]
Equation y = y0 + A1*exp(-(x-x0)
Figure S366. Decomposition of F4-CH2NH2•TFA Conditions: 100 mM phosphate buffer containing 10 mM GSH degassed with N2. T = 298 K. […]

[5] = Z → E thermal isomerisation, DMSO

SMILES | λ max of n → π* transition [1] [nm] | τ 1/2 [3, 5] | other results
CC(C)(C)OC(=O)NCc1ccc(/N=N/c2ccc(CNC(=O)OC(C)(C)C)cc2N2CCCC2)c(N2CCCC2)c1 [(N(CH2)4)2,m-H] | 530.2 |  | 
CCOP(=O)(OCC)c1ccccc1/N=N/c1ccccc1P(=O)(OCC)OCC [(PO(OEt)2)2,m-H] | 458.2 |  | 
CCOC(=O)c1cc(SCC)c(/N=N/c2c(SCC)cc(C(=O)OCC)cc2SCC)c(SCC)c1 [(SEt)4-ester] | 590.0 | 0.0144 h | 
CSc1cccc(SC)c1/N=N/c1c(SC)cccc1SC [(SMe)4-H] | 514.2 | 5 m | 
C[Se]c1cccc([Se]C)c1/N=N/c1c([Se]C)cccc1[Se]C [(SeMe)4-H] | 533.9 | 0.0222 h | 
C[Se]c1cc(CNC(=O)OC(C)(C)C)cc([Se]C)c1/N=N/c1c([Se]C)cc(CNC(=O)OC(C)(C)C)cc1[Se]C [(SeMe)4-NHBoc] | 534.3 | 0.00944 h | 
CCOC(=O)c1cc([Se]C)c(/N=N/c2c([Se]C)cc(C(=O)OCC)cc2[Se]C)c([Se]C)c1 [(SeMe)4-ester] | 588.8 | 0.000694 h | 
C[Te]c1cccc([Te]C)c1/N=N/c1c([Te]C)cccc1[Te]C [(TeMe)4-H] | 518.5 |  | 
CC(C)(C)OC(=O)NCc1cc(Br)c(N=Nc2c(Br)cc(CNC(=O)OC(C)(C)C)cc2Br)c(Br)c1 [Br] |  |  | t1 of 1st order exponential decay fit (decomposition with GSH) [4]: 25249.56343 ± 57.34 s; τ 1/2 (10 mM GSH) [4]: 5 h
CC(C)(C)OC(=O)NCc1cc(Cl)c(/N=N/c2c(Cl)cc(CNC(=O)OC(C)(C)C)cc2Cl)c(Cl)c1 [Cl] |  |  | t1 of 1st order exponential decay fit (decomposition with GSH) [4]: 14241.72745 ± 14.23 s; τ 1/2 (10 mM GSH) [4]: 2.7 h
CC(C)(C)OC(=O)NCc1cc(F)c(/N=N/c2c(F)cc(CNC(=O)OC(C)(C)C)cc2F)c(F)c1 [F] |  |  | t1 of 1st order exponential decay fit (decomposition with GSH) [4]: 3748 ± 3.403 s; τ 1/2 (10 mM GSH) [4]: 0.7 h
N#Cc1cc(I)c(/N=N/c2c(I)cc(C#N)cc2I)c(I)c1 [I4-CN] | 520.8 | 0.00556 h | 
[N-]=[N+]=NCc1cc(I)c(/N=N/c2c(I)cc(CN=[N+]=[N-])cc2I)c(I)c1 [I4-N3] | 514.4 | 3 m | 
O=C1c2ccccc2C(=O)N1Cc1cc(I)c(/N=N/c2c(I)cc(CN3C(=O)c4ccccc4C3=O)cc2I)c(I)c1 [I4-NPhth] | 511.8 | 3 m | 
CC(=O)OCc1cc(I)c(/N=N/c2c(I)cc(COC(C)=O)cc2I)c(I)c1 [I4-OAc] | 501.3 | 2 m | 
OCc1cc(I)c(/N=N/c2c(I)cc(CO)cc2I)c(I)c1 [I4-OH] | 500.3 |  | 
CCOC(=O)c1cc(I)c(N=Nc2c(I)cc(C(=O)OCC)cc2I)c(I)c1 [I4-ester] | 519.6 | 0.0128 h | 
CC(C)(C)OC(=O)NCc1cc(I)c(/N=N/c2c(I)cc(CNC(=O)OC(C)(C)C)cc2I)c(I)c1 [I] |  |  | t1 of 1st order exponential decay fit (decomposition with GSH) [4]: 3971 ± 9.47 s; τ 1/2 (10 mM GSH) [4]: 0.7 h
C[Te]c1cccc(F)c1/N=N/c1c(F)cccc1[Te]C [Te2F2-H] | 543 |  | 

More lines, main results first:

λ max of n → π* transition [1] [nm] | τ 1/2 [3, 5] | SMILES | other results
425.4 |  | COc1cc(CNC(=O)OC(C)(C)C)c(OC)c(F)c1/N=N/c1c(OC)cc(CNC(=O)OC(C)(C)C)c(OC)c1F [(OMe)2F2,m-OMe2-NHBoc] | Stability to light [2]: unstable to light
459.8 | 197 h | COc1cc(CNC(=O)OC(C)(C)C)cc(OC)c1/N=N/c1c(OC)cc(CNC(=O)OC(C)(C)C)cc1OC [(OMe)4-NHBoc] | 
543.0 | 0.0389 h | CCSc1cc(CNC(=O)OC(C)(C)C)c(N(C)C)cc1/N=N/c1cc(N(C)C)c(CNC(=O)OC(C)(C)C)cc1SCC [(SEt)2,m-(NMe2)2] | 
431.3 | 44 m | CCSc1cc(CNC(=O)OC(C)(C)C)ccc1/N=N/c1ccc(CNC(=O)OC(C)(C)C)cc1SCC [(SEt)2,m-H2] | 
464.1 | 9 m | CCSc1cc(CNC(=O)OC(C)(C)C)c(OC)cc1/N=N/c1cc(OC)c(CNC(=O)OC(C)(C)C)cc1SCC [(SEt)2,m-OMe2] | 
514.5 | 3 m | CCSc1cc(CNC(=O)OC(C)(C)C)cc(SCC)c1/N=N/c1c(SCC)cc(CNC(=O)OC(C)(C)C)cc1SCC [(SEt)4-NHBoc] | 
500.4 | 3 m | CC(C)Sc1cc(CNC(=O)OC(C)(C)C)cc(SC(C)C)c1/N=N/c1c(SC(C)C)cc(CNC(=O)OC(C)(C)C)cc1SC(C)C [(S^iPr)4-NHBoc] | 
465.9 | 12 h | CC(C)(C)OC(=O)NCc1cc(Br)c(N=Nc2c(Br)cc(CNC(=O)OC(C)(C)C)cc2Br)c(Br)c1 [Br4-NHBoc] | t1 of exponential fit (lifetime plot of Z isomer) ([3]; after irradiation with 625 nm light, rt, DMSO): 1011 ± 6.62 min
432.1 | 4 h | CN(C)c1cc(N=Nc2cc(N(C)C)c(CNC(=O)OC(C)(C)C)cc2Cl)c(Cl)cc1CNC(=O)OC(C)(C)C [Cl2,m-(NMe2)2] | 
471.0 | 34 h | CC(C)(C)OC(=O)NCc1ccc(N=Nc2ccc(CNC(=O)OC(C)(C)C)cc2Cl)c(Cl)c1 [Cl2,m-H2] | 
475.0 | 18 h | COc1cc(N=Nc2cc(OC)c(CNC(=O)OC(C)(C)C)cc2Cl)c(Cl)cc1CNC(=O)OC(C)(C)C [Cl2,m-OMe2] | 
462.6 | 160 h | CC(C)(C)OC(=O)NCc1cc(Cl)c(N=Nc2c(Cl)cc(CNC(=O)OC(C)(C)C)cc2Cl)c(Cl)c1 [Cl4-NHBoc] | 
405.5 | 16 h | CN(C)c1cc(N=Nc2cc(N(C)C)c(CNC(=O)OC(C)(C)C)cc2F)c(F)cc1CNC(=O)OC(C)(C)C [F2,m-(NMe2)2] | 
452.5 | 75 h | CC(C)(C)OC(=O)NCc1ccc(N=Nc2ccc(CNC(=O)OC(C)(C)C)cc2F)c(F)c1 [F2,m-H2] | 
387.1 | 77 h | COc1cc(N=Nc2cc(OC)c(CNC(=O)OC(C)(C)C)cc2F)c(F)cc1CNC(=O)OC(C)(C)C [F2,m-OMe2] | 
454 | 1.25y | CC(C)(C)OC(=O)NCc1cc(F)c(N=Nc2c(F)cc(CNC(=O)OC(C)(C)C)cc2F)c(F)c1 [F4-NHBoc] | 
514.3 | 5 m | CC(C)(C)OC(=O)NCc1cc(I)c(N=Nc2c(I)cc(CNC(=O)OC(C)(C)C)cc2I)c(I)c1 [I4-NHBoc] | τ1/2 (Z) ([3]; Z → E thermal isomerisation, printed in Fig. 1 / Fig. 8): 5 min
